ChEMBL document CHEMBL1201862, “PubChem BioAssay data set” (2004)
Active and inactive are the calls of the source.

How the values were obtained:
[1] = Counterscreen for […] of the human trace amine associated receptor 1 (TAAR1): Fluorescence-based cell-based high throughput dose response assay to identify nonselective Ga16 agonists.; format: functional
[2] = molecular target: T1, Trace amine-associated receptor 1 (Homo sapiens, UniProt Q96RJ0); assay: Fluorescence-based cell-based high throughput dose response assay to identify antagonists of the human trace amine associated receptor 1 (TAAR1).; format: functional
T1 sequence (Q96RJ0 whole entry): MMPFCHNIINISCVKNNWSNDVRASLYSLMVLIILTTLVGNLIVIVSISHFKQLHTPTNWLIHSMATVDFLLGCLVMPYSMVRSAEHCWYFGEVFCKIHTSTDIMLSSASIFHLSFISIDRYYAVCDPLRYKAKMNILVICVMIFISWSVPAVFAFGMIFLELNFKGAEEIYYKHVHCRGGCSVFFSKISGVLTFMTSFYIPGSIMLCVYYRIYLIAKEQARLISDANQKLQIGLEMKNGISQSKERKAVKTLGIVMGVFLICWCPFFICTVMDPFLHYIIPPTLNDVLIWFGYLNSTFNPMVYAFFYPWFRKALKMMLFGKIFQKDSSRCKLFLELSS

[3] = Counterscreen for antagonists of the human trace amine associated receptor 1 (hTAAR1): Fluorescence-based cell-based high throughput dose response assay to identify nonselective Ga16 antagonists.; format: functional
[4] = molecular target: T1, Trace amine-associated receptor 1; assay: Counterscreen for antagonists of the human trace amine associated receptor 1 (hTAAR1): Fluorescence-based cell-based high throughput dose response assay to identify TAAR1 Agonists.; format: functional
Beta-galactosidase = Beta-galactosidase (Escherichia coli, UniProt Q8VNN2); assay: Dose response counterscreen for EBI2 assay utilizing the enzyme, b-galactosidase.; format: functional
[5] = molecular target: Potassium channel subfamily K member 9 (Homo sapiens, UniProt Q9NPC2); assay: KCNK9 flux blockade, concentration-response – cell-based, FluxOR thallium flux, selectivity assay for TASK1 inhibitor project, SAR follow-up (AID 652211); format: functional;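 note: potency is for inhibitors of the channel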
[6] = molecular target: Potassium channel subfamily K member 3 (Rattus norvegicus, UniProt O54912); assay: SAR analysis for the identification of selective inhibitors of the two-pore domain potassium channel TASK1(KCNK3):Automated Electrophysiology.; format: functional
[7] = molecular target: Potassium channel subfamily K member 3 (Homo sapiens, UniProt O14649); assay: inhibition of human KCNK3 channel flux – CHO cells, FluxOR thallium flux, SAR follow-up (AID 652212); format: functional
[8] = activation of miR-122 Renilla sensor silencing – cell-based, Huh7 psiCHECK-miR122, Renilla luciferase, cherry-picked, dose response (AID 651956); format: functional;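 note: huh7 hepatoma cells stably carrying a psiCHECK-2 miR-122 sensor plasmid; renilla luciferase signal reporting endogenous miR-122 activity after 48 h compound exposure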
[9] = general mammalian cell viability loss – inhibitor set, cherry-pick, set 2, cytotoxicity control for miR-122 modulator project, dose response (AID 720697); format: functional, cell-based
cells [10] = format: functional, cell-based
[11] = molecular target: T1, Trace amine-associated receptor 1; assay: Fluorescence-based cell-based high throughput dose response assay to identify agonists of the human trace amine associated receptor 1 (TAAR1).; format: functional
[12] = molecular target: T1, Trace amine-associated receptor 1; assay: Counterscreen for agonists of the human trace amine associated receptor 1 (hTAAR1): Fluorescence-based cell-based high throughput dose response assay to identify hTAAR1 agonist that also desensitize TAAR1 receptor response.; format: functional
cells [13] = format: functional, cell-based; remark: listed apart in the source

Chain of Potassium channel subfamily K member 3 (Rattus norvegicus, UniProt O54912) (O54912 whole entry, the tested form may be a part): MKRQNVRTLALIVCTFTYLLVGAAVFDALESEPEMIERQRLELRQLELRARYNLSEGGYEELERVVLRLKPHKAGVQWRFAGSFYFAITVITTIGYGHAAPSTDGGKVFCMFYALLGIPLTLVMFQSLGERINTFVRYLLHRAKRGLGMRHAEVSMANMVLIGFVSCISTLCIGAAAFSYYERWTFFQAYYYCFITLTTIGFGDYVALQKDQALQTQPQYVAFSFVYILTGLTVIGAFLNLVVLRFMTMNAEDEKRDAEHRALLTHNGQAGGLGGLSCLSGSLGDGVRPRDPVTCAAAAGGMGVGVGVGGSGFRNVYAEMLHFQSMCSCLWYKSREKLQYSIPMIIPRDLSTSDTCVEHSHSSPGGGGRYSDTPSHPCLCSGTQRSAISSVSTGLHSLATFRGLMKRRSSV
Chain of Beta-galactosidase (Q8VNN2 whole entry): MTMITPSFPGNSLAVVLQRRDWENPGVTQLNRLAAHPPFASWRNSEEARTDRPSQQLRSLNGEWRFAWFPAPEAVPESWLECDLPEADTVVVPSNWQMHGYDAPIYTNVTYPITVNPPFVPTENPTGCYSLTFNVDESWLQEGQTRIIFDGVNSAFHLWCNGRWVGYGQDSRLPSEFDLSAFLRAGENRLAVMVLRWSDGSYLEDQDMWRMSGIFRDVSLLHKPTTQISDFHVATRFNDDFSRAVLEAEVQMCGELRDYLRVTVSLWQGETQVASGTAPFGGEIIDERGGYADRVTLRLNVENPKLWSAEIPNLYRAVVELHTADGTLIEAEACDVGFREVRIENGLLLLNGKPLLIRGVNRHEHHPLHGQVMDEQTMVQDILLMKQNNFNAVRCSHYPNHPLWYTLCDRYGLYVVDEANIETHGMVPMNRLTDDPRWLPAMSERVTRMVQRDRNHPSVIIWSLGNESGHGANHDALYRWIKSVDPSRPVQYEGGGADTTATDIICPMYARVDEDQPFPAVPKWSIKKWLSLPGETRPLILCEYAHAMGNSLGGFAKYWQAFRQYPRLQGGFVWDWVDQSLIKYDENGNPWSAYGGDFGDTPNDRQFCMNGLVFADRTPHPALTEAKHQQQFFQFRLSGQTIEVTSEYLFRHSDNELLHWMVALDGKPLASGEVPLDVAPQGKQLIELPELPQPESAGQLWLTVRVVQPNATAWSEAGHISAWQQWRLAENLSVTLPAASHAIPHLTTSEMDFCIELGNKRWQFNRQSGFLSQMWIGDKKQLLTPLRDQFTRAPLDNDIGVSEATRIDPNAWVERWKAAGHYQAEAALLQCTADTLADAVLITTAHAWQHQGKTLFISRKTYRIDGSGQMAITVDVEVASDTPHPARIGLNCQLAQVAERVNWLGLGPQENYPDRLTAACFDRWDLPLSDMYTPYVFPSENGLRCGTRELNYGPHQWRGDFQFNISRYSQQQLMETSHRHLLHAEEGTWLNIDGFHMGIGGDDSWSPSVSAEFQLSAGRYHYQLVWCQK
Chain of Potassium channel subfamily K member 9 (Q9NPC2 whole entry, the tested form may be a part): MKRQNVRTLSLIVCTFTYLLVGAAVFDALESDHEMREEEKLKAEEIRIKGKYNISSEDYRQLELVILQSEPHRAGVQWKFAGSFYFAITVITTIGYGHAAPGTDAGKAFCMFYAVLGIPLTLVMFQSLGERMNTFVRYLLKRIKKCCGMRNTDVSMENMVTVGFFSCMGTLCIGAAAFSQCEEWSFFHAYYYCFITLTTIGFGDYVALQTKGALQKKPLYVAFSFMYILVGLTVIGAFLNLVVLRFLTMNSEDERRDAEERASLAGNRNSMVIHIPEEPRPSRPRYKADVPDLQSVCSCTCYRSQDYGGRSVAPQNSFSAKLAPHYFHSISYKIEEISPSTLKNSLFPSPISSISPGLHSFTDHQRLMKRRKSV
Chain of Potassium channel subfamily K member 3 (Homo sapiens, UniProt O14649) (O14649 whole entry): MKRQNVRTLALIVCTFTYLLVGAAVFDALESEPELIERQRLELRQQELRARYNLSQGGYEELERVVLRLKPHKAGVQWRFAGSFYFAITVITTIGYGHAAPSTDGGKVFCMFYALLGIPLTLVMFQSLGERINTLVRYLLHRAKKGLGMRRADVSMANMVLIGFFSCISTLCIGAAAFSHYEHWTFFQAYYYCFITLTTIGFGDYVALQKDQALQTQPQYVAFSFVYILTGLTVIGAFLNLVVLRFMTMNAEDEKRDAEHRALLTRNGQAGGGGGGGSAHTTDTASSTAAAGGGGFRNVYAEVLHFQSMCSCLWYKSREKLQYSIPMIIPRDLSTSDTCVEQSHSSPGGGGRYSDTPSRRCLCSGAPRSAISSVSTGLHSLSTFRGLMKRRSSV

SMILES: O=C(CCN1C(=O)C2C3C=CC(C3)C2C1=O)NCCc1ccccc1 (centres undefined)
- EC50 [1]: > 29.9 µM (inactive)
- IC50 [2]: > 29.9 µM (inactive)
- IC50 [3]: > 29.9 µM (inactive)
- EC50 [4]: > 29.9 µM (inactive)

SMILES: O=C(/C=C/c1ccc(F)cc1)N1CCN(Cc2ccccc2)CC1
- IC50 (Beta-galactosidase): > 80 µM (inactive)

SMILES: Cc1cccc(C(=O)Nc2cccc(NC(=O)c3ccccc3OC(F)(F)F)c2)c1
- IC50 [5]: 1.05 µM (active)
- IC50 [6]: 0.06 µM (active)
- IC50 [7]: 0.028 µM (active)

SMILES: C[C@H]1CN([C@@H](C)CO)S(=O)(=O)c2ccc(-c3ccc(C(=O)N(C)C)cc3)cc2O[C@H]1CN(C)C(=O)C1CCC1
- AC50 [8]: 10.9 µM (active)
- AC50 [9]: 2.2 µM (active)

SMILES: CC(C)[C@H](NC(=O)CC1CCCC1)C(=O)N1CCC[C@H]1C(=O)NCCc1ccccc1Cl
- IC50 (cells [10]): > 29.9 µM (inactive)
- EC50 [11]: 2.01 µM (active)
- IC50 [12]: 4 µM (active)
- EC50 (cells [13]): > 29.9 µM (inactive)
